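In this assay, cells in 96-well plates receive the compound at five concentrations for 48 hours. Endpoints are linearly interpolated between the surrounding concentrations. The concentration for 50% growth inhibition is given as GI50.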 Calls of active or inactive are those of the source. Cut-off read from the data, not from the text of the source: active = GI50 up to about 1.1 µM and inactive = higher.
Key:
Experiment in all cases: NCI-60 cell line screen, 48 h
A498 = tested on: A498
A549 = tested on: A549
ACHN = tested on: ACHN
BT-549 = tested on: BT-549
CAKI-1 = tested on: CAKI-1
CCRF-CEM = tested on: CCRF-CEM
COLO 205 = tested on: COLO 205
DU-145 = tested on: DU-145
EKVX = tested on: EKVX
HCT-15 = tested on: HCT-15
HL-60 = tested on: HL-60
HOP-62 = tested on: HOP-62
HOP-92 = tested on: HOP-92
HT-29 = tested on: HT-29
Hs-578T = tested on: Hs-578T
IGROV-1 = tested on: IGROV-1
K562 = tested on: K562
KM12 = tested on: KM12
M14 = tested on: M14
MCF7 = tested on: MCF7
MDA-MB-231 = tested on: MDA-MB-231
MDA-MB-435 = tested on: MDA-MB-435
MDA-N = tested on: MDA-N
MOLT-4 = tested on: MOLT-4
NCI-H226 = tested on: NCI-H226
NCI-H23 = tested on: NCI-H23
NCI-H460 = tested on: NCI-H460
NCI/ADR-RES = tested on: NCI/ADR-RES
OVCAR-3 = tested on: OVCAR-3
OVCAR-5 = tested on: OVCAR-5
OVCAR-8 = tested on: OVCAR-8
PC-3 = tested on: PC-3
RPMI-8226 = tested on: RPMI-8226
SF-268 = tested on: SF-268
SF-295 = tested on: SF-295
SF-539 = tested on: SF-539
SK-MEL-28 = tested on: SK-MEL-28
SK-MEL-2 = tested on: SK-MEL-2
SK-MEL-5 = tested on: SK-MEL-5
SK-OV-3 = tested on: SK-OV-3
SN12C = tested on: SN12C
SNB-19 = tested on: SNB-19
SNB-75 = tested on: SNB-75
SR = tested on: SR
SW-620 = tested on: SW-620
T47D = tested on: T47D
TK-10 = tested on: TK-10
U-251 = tested on: U-251
UACC-257 = tested on: UACC-257
UACC-62 = tested on: UACC-62
UO-31 = tested on: UO-31
786-0 = tested on: 786-0
HCC 2998 = tested on: HCC 2998
HCT-116 = tested on: HCT-116
LOX IMVI = tested on: LOX IMVI
Malme-3M = tested on: Malme-3M
NCI-H522 = tested on: NCI-H522
OVCAR-4 = tested on: OVCAR-4
RXF 393 = tested on: RXF 393

Q: Which GI50 (A498) does the source give for `Cn1c(=O)n2n(c1=O)C(C)(C13CC4CC(CC(C4)C1)C3)C13CC4CC(CC1C4)CC23` (configuration not stated) here?
A: > 100 µM (inactive)

Q: And the GI50 (A549)?
A: > 100 µM (inactive)

Q: What about the GI50 (ACHN) of the same molecule?
A: > 100 µM (inactive)

Q: And the GI50 (BT-549)?
A: > 100 µM (inactive)

Q: What about the GI50 (CAKI-1) of the same molecule?
A: > 100 µM (inactive)

Q: And the GI50 (CCRF-CEM)?
A: > 100 µM (inactive)

Q: And the GI50 (COLO 205)?
A: > 100 µM (inactive)

Q: And the GI50 (DU-145)?
A: > 100 µM (inactive)

Q: What about the GI50 (EKVX) of the same molecule?
A: > 100 µM (inactive)

Q: And the GI50 (HCT-15)?
A: > 100 µM

Q: What about the GI50 (HL-60) of the same molecule?
A: 6.76 µM (inactive)

Q: What about the GI50 (HOP-62) of the same molecule?
A: > 100 µM (inactive)

Q: And the GI50 (HOP-92)?
A: > 100 µM (inactive)

Q: And the GI50 (HT-29)?
A: > 100 µM (inactive)

Q: What about the GI50 (Hs-578T) of the same molecule?
A: > 100 µM (inactive)

Q: What about the GI50 (IGROV-1) of the same molecule?
A: > 100 µM (inactive)

Q: What about the GI50 (K562) of the same molecule?
A: 87.1 µM (inactive)

Q: What about the GI50 (KM12) of the same molecule?
A: > 100 µM (inactive)

Q: And the GI50 (M14)?
A: > 100 µM (inactive)

Q: What about the GI50 (MCF7) of the same molecule?
A: > 100 µM (inactive)

Q: And the GI50 (MDA-MB-231)?
A: > 100 µM (inactive)

Q: What about the GI50 (MDA-MB-435) of the same molecule?
A: > 100 µM (inactive)

Q: What about the GI50 (MDA-N) of the same molecule?
A: > 100 µM (inactive)

Q: And the GI50 (MOLT-4)?
A: 89.9 µM (inactive)

Q: And the GI50 (NCI-H226)?
A: > 100 µM (inactive)

Q: What about the GI50 (NCI-H23) of the same molecule?
A: > 100 µM (inactive)

Q: What about the GI50 (NCI-H460) of the same molecule?
A: > 100 µM (inactive)

Q: And the GI50 (NCI/ADR-RES)?
A: > 100 µM (inactive)

Q: What about the GI50 (OVCAR-3) of the same molecule?
A: > 100 µM (inactive)

Q: And the GI50 (OVCAR-5)?
A: > 100 µM (inactive)

Q: What about the GI50 (OVCAR-8) of the same molecule?
A: > 100 µM (inactive)

Q: What about the GI50 (PC-3) of the same molecule?
A: > 100 µM (inactive)

Q: And the GI50 (RPMI-8226)?
A: > 100 µM (inactive)

Q: What about the GI50 (SF-268) of the same molecule?
A: > 100 µM (inactive)

Q: What about the GI50 (SF-295) of the same molecule?
A: > 100 µM (inactive)

Q: And the GI50 (SF-539)?
A: > 100 µM (inactive)

Q: And the GI50 (SK-MEL-28)?
A: > 100 µM (inactive)

Q: What about the GI50 (SK-MEL-2) of the same molecule?
A: > 100 µM (inactive)

Q: And the GI50 (SK-MEL-5)?
A: > 100 µM (inactive)

Q: What about the GI50 (SK-OV-3) of the same molecule?
A: > 100 µM (inactive)

Q: What about the GI50 (SN12C) of the same molecule?
A: > 100 µM (inactive)

Q: And the GI50 (SNB-19)?
A: > 100 µM (inactive)

Q: What about the GI50 (SNB-75) of the same molecule?
A: > 100 µM (inactive)

Q: What about the GI50 (SR) of the same molecule?
A: > 100 µM (inactive)

Q: What about the GI50 (SW-620) of the same molecule?
A: > 100 µM (inactive)

Q: What about the GI50 (T47D) of the same molecule?
A: > 100 µM (inactive)

Q: What about the GI50 (TK-10) of the same molecule?
A: > 100 µM (inactive)

Q: What about the GI50 (U-251) of the same molecule?
A: > 100 µM (inactive)

Q: What about the GI50 (UACC-257) of the same molecule?
A: > 100 µM (inactive)

Q: And the GI50 (UACC-62)?
A: > 100 µM (inactive)

Q: What about the GI50 (UO-31) of the same molecule?
A: > 100 µM (inactive)

Q: What does the source list for `COC12OC3(C4OC41)C(C(=O)O[C@H]3CO[Si](C)(C)C(C)(C)C)C2C(=O)Oc1ccccc1` (some centres not stated)?
A: GI50 (786-0): > 100 µM (inactive); GI50 (A498): > 100 µM (inactive); GI50 (A549): > 100 µM (inactive); GI50 (ACHN): > 100 µM (inactive); GI50 (BT-549): 0.991 µM (active); GI50 (CAKI-1): > 100 µM (inactive); GI50 (CCRF-CEM): 38.1 µM (inactive); GI50 (COLO 205): > 100 µM (inactive); GI50 (DU-145): > 100 µM (inactive); GI50 (EKVX): > 100 µM (inactive); GI50 (HCC 2998): > 100 µM (inactive); GI50 (HCT-116): > 100 µM (inactive); GI50 (HCT-15): > 100 µM; GI50 (HOP-62): > 100 µM (inactive); GI50 (HOP-92): > 100 µM (inactive); GI50 (HT-29): > 100 µM (inactive); GI50 (Hs-578T): > 100 µM (inactive); GI50 (IGROV-1): > 100 µM (inactive); GI50 (K562): > 100 µM (inactive); GI50 (KM12): > 100 µM (inactive); GI50 (LOX IMVI): > 100 µM (inactive); GI50 (M14): > 100 µM (inactive); GI50 (MCF7): > 100 µM (inactive); GI50 (MDA-MB-231): 57.3 µM (inactive); GI50 (MDA-MB-435): > 100 µM (inactive); GI50 (MDA-N): > 100 µM (inactive); GI50 (MOLT-4): > 100 µM (inactive); GI50 (Malme-3M): 92 µM (inactive); GI50 (NCI-H226): > 100 µM (inactive); GI50 (NCI-H23): > 100 µM (inactive); GI50 (NCI-H460): > 100 µM (inactive); GI50 (NCI-H522): > 100 µM (inactive); GI50 (NCI/ADR-RES): > 100 µM (inactive); GI50 (OVCAR-3): > 100 µM (inactive); GI50 (OVCAR-4): > 100 µM (inactive); GI50 (OVCAR-5): > 100 µM (inactive); GI50 (OVCAR-8): > 100 µM (inactive); GI50 (PC-3): > 100 µM (inactive); GI50 (RPMI-8226): 91 µM (inactive); GI50 (SF-268): > 100 µM (inactive); GI50 (SF-295): > 100 µM (inactive); GI50 (SK-MEL-28): > 100 µM (inactive); GI50 (SK-MEL-2): > 100 µM (inactive); GI50 (SK-MEL-5): > 100 µM (inactive); GI50 (SK-OV-3): > 100 µM (inactive); GI50 (SN12C): > 100 µM (inactive); GI50 (SNB-19): > 100 µM (inactive); GI50 (SNB-75): > 100 µM (inactive); GI50 (SR): > 100 µM (inactive); GI50 (SW-620): > 100 µM (inactive); GI50 (T47D): > 100 µM (inactive); GI50 (TK-10): > 100 µM (inactive); GI50 (U-251): > 100 µM (inactive); GI50 (UACC-257): > 100 µM (inactive); GI50 (UACC-62): > 100 µM (inactive); GI50 (UO-31): > 100 µM (inactive)

Q: What does the source list for `CSc1ccc(/C=C2\N=C(c3ccccc3)N(c3nc4c(Cl)cc(Cl)cc4s3)C2=O)cc1`?
A: GI50 (786-0): 25.9 µM (inactive); GI50 (A498): 17 µM (inactive); GI50 (A549): 21.4 µM (inactive); GI50 (ACHN): 27 µM (inactive); GI50 (BT-549): 21.5 µM (inactive); GI50 (CAKI-1): 31 µM (inactive); GI50 (CCRF-CEM): 7.74 µM (inactive); GI50 (COLO 205): 33.4 µM (inactive); GI50 (DU-145): 46 µM (inactive); GI50 (EKVX): 13.6 µM (inactive); GI50 (HCC 2998): 29 µM (inactive); GI50 (HCT-116): 19.1 µM (inactive); GI50 (HCT-15): 28.5 µM; GI50 (HL-60): 21.6 µM (inactive); GI50 (HOP-62): 18.1 µM (inactive); GI50 (HOP-92): 32.8 µM (inactive); GI50 (HT-29): 19.8 µM (inactive); GI50 (Hs-578T): 21.9 µM (inactive); GI50 (IGROV-1): 35.3 µM (inactive); GI50 (K562): 26.7 µM (inactive); GI50 (KM12): 23 µM (inactive); GI50 (LOX IMVI): 29.9 µM (inactive); GI50 (M14): 25.7 µM (inactive); GI50 (MCF7): 24.9 µM (inactive); GI50 (MDA-MB-231): 18.9 µM (inactive); GI50 (MDA-MB-435): 16.6 µM (inactive); GI50 (MDA-N): 17 µM (inactive); GI50 (MOLT-4): 18.6 µM (inactive); GI50 (NCI-H460): 25.6 µM (inactive); GI50 (NCI/ADR-RES): 25.2 µM (inactive); GI50 (OVCAR-3): 18.9 µM (inactive); GI50 (OVCAR-4): 21.2 µM (inactive); GI50 (OVCAR-5): 31.1 µM (inactive); GI50 (OVCAR-8): 38.5 µM (inactive); GI50 (PC-3): 20.4 µM (inactive); GI50 (RPMI-8226): 22.5 µM (inactive); GI50 (RXF 393): 41 µM (inactive); GI50 (SF-268): 28.2 µM (inactive); GI50 (SF-295): 24.3 µM (inactive); GI50 (SF-539): 34.5 µM (inactive); GI50 (SK-MEL-28): 31.1 µM (inactive); GI50 (SK-MEL-2): 20.2 µM (inactive); GI50 (SK-MEL-5): 16.2 µM (inactive); GI50 (SK-OV-3): 25.9 µM (inactive); GI50 (SN12C): 24.8 µM (inactive); GI50 (SNB-19): 28.9 µM (inactive); GI50 (SNB-75): 36.6 µM (inactive); GI50 (SR): 20.9 µM (inactive); GI50 (SW-620): 29.4 µM (inactive); GI50 (T47D): 38.5 µM (inactive); GI50 (TK-10): 39.2 µM (inactive); GI50 (U-251): 17.1 µM (inactive); GI50 (UACC-257): 25.2 µM (inactive); GI50 (UACC-62): 24.4 µM (inactive); GI50 (UO-31): 22.2 µM (inactive)

Reference: ChEMBL document CHEMBL1201862, “PubChem BioAssay data set” (2004)
